Usually IC50 stands for the concentration that inhibits the measured activity by half.

Here are results for 1 molecule from ChEMBL document CHEMBL3886923, “BTK inhibitors” (2016).

The target in this assay is Tyrosine-protein kinase BTK (Homo sapiens, UniProt Q06187). The assay can be described thus: LANCE-TR-FRET Assay: Assay Method B: BTK enzymatic activity was determined with the LANCE (Lanthanide Chelate Excite) TR-FRET (Time-resolved fluorescence resonance energy transfer) assay. In this assay, the potency (IC50) of each compound was determined from an eleven point (1:3 serial dilution; final compound concentration range in assay from 1 μM to 0.017 nM) titration curve using the following outlined procedure. To each well of a black non-binding surface Corning 384-well microplate (Corning Catalog #3820), 5 nL of compound (2000 fold dilution in final assay volume of 10 μL) was dispensed, followed by the addition of 7.5 μL of 1× kinase buffer (50 mM Hepes 7.5, 10 mM MgCl2, 0.01% Brij-35, 1 mM EGTA, 0.05% BSA & 1 mM DTT) containing 5.09 pg/μL (66.67 pM) of BTK enzyme (recombinant protein from baculovirus-transfected Sf9 cells: full-length BTK, 6HIS-tag cleaved). Following a 60 minute compound & enzyme incubation, each reaction was initiated by the addition of 2.5 μL 1× kinase buffer containing 8 μM biotinylated "A5" peptide (Biotin-EQEDEPEGDYFEWLE-NH2), and 100 μM ATP. The final reaction in each well of 10 μL consists of 50 pM hBTK, 2 μM biotin-A5-peptide, and 25 μM ATP. Phosphorylation reactions were allowed to proceed for 120 minutes. […]. In general terms: TR-FRET usually uses a lanthanide donor and a delayed reading to cut background.
Sequence of Tyrosine-protein kinase BTK (Q06187 whole entry): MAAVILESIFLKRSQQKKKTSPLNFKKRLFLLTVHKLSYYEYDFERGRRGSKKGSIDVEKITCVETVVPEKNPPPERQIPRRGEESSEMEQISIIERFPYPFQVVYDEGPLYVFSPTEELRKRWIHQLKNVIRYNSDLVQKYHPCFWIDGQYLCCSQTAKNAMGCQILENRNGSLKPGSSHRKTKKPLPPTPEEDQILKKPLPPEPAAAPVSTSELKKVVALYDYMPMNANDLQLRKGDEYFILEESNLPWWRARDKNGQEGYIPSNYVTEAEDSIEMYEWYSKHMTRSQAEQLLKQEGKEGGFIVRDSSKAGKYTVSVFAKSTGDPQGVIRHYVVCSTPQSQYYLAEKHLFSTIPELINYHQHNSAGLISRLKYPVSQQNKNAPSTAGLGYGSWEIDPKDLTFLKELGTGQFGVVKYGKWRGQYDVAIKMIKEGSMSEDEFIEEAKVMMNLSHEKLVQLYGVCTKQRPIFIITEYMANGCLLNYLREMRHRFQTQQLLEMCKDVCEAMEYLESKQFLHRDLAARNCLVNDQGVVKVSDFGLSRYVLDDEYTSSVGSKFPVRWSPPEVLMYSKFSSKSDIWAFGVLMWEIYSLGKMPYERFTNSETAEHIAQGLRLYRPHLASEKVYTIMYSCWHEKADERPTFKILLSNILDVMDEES

Take `Cn1ncc2c1CCC[C@@H]2n1nc(-c2ccc(C(=O)Nc3cc(C(F)(F)F)ccn3)cc2)c2c(N)ncnc21`: the IC50 was 2.7 nM.
